Consider nine compounds from patent publication US10543212B2, “Substituted amines for treating cardiac diseases” (Cardurion Pharmaceuticals, LLC, priority 2017, dated 2020).

The target in this experiment is T1, Full-length, GST-tagged, human CaMKIIδ (Homo sapiens, UniProt Q13557).
T1 construct: Full-Length, Glutathione-S-Transferase(GST)-Tagged, Human CaMKIIδ was purchased from Carna Biosciences; purchased Carna Biosciences 02-111
T1 sequence (Q13557 1-478 isoform Q13557-12): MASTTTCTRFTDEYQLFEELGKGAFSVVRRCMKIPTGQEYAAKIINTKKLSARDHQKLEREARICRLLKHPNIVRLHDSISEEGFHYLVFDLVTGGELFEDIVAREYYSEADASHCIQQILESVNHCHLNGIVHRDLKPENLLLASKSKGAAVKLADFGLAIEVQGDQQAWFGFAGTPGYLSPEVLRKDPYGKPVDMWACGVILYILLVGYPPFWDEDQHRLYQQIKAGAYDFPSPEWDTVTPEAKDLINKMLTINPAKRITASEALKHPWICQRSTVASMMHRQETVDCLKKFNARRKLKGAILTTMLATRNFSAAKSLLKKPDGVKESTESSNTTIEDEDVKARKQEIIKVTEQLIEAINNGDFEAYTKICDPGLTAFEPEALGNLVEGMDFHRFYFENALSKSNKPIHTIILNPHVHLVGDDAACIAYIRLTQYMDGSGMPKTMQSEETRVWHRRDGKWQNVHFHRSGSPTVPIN
As to the kind of experiment: CaMKIIδ binding assay (TR-FRET with BODIPY-labeled probe ligand). Conditions: CaMKIIδ binding assay, results of Table 2. In short, it runs like this: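 Compounds were tested as 4-fold, eight-point series for 1 hr at room temperature, and IC50 was obtained by logistic fitting against a 3 μM parent-compound control. Signal came from displacement of a 300 nM BODIPY ligand from 0.5 nM GST-CaMKIIδ, detected via Tb-anti-GST in calmodulin/Ca2+ (pH 7.6).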
Background: In TR-FRET formats the signal depends on donor and acceptor labels being close together.
For orientation: IC50 means the concentration that gives 50% inhibition. A low value points to greater potency. In turn, `C[C@@H](Cn1cnnn1)Oc1cc(-c2cnc(Nc3cn(C4CCN(Cc5ccccc5)CC4)nc3C(F)(F)F)nc2)ccc1Cl` [Example 548, (S)-5-(3-((1-(1H-tetrazol-1-yl)propan-2-yl)oxy)-4-chlorophenyl)-N-(1-(1-benzylpiperidin-4-yl)-3-(trifluoromethyl)-1H-pyrazol-4-yl)pyrimidin-2-amine] gave a half-inhibitory concentration (IC50) below 10 nM.
With `C[C@@H](Cn1cnnn1)Oc1cc(-c2cnc(Nc3cn(C4CCN(CC5CC5)CC4)nc3C(F)(F)F)nc2)ccc1Cl` [Example 549, (S)-5-(3-((1-(1H-tetrazol-1-yl)propan-2-yl)oxy)-4-chlorophenyl)-N-(1-(1-(cyclopropylmethyl)piperidin-4-yl)-3-(trifluoromethyl)-1H-pyrazol-4-yl)pyrimidin-2-amine], the half-maximal inhibitory concentration (IC50) is below 10 nM.
Compound `C[C@@H](Cn1cnnn1)Oc1cc(-c2cnc(Nc3cn(C4CCN(Cc5ccncc5)CC4)nc3C(F)(F)F)nc2)ccc1Cl` [Example 550, (S)-5-(3-((1-(1H-tetrazol-1-yl)propan-2-yl)oxy)-4-chlorophenyl)-N-(1-(1-(pyridin-4-ylmethyl)piperidin-4-yl)-3-(trifluoromethyl)-1H-pyrazol-4-yl)pyrimidin-2-amine] registered an IC50 of 10 to 100 nM.
For the compound `C[C@@H](Cn1cnnn1)Oc1cc(-c2cnc(Nc3cn(C4CCN(Cc5nccs5)CC4)nc3C(F)(F)F)nc2)ccc1Cl` [Example 551, (S)-5-(3-((1-(1H-tetrazol-1-yl)propan-2-yl)oxy)-4-chlorophenyl)-N-(1-(1-(thiazol-2-ylmethyl)piperidin-4-yl)-3-(trifluoromethyl)-1H-pyrazol-4-yl)pyrimidin-2-amine], the IC50 is 10 to 100 nM.
`C[C@@H](Cn1cnnn1)Oc1cc(-c2cnc(Nc3cn(C4CCN(C5CCOC5)CC4)nc3C(F)(F)F)nc2)ccc1Cl` (stereo partly drawn) [Example 552, 5-(3-(((S)-1-(1H-tetrazol-1-yl)propan-2-yl)oxy)-4-chlorophenyl)-N-(1-(1-(tetrahydrofuran-3-yl)piperidin-4-yl)-3-(trifluoromethyl)-1H-pyrazol-4-yl)pyrimidin-2-amine] gave an IC50 below 10 nM.
`COCC(C)N1CCC(n2cc(Nc3ncc(-c4ccc(Cl)c(O[C@@H](C)Cn5cnnn5)c4)cn3)c(C(F)(F)F)n2)CC1` (stereo partly drawn) [Example 553, 5-(3-(((S)-1-(1H-tetrazol-1-yl)propan-2-yl)oxy)-4-chlorophenyl)-N-(1-(1-(1-methoxypropan-2-yl)piperidin-4-yl)-3-(trifluoromethyl)-1H-pyrazol-4-yl)pyrimidin-2-amine] came in with an IC50 below 10 nM.
Regarding `COC1CCCCC1N1CCC(n2cc(Nc3ncc(-c4ccc(Cl)c(O[C@@H](C)Cn5cnnn5)c4)cn3)c(C(F)(F)F)n2)CC1` (stereo partly drawn) [Example 554, 5-(3-(((S)-1-(1H-tetrazol-1-yl)propan-2-yl)oxy)-4-chlorophenyl)-N-(1-(1-(2-methoxycyclohexyl)piperidin-4-yl)-3-(trifluoromethyl)-1H-pyrazol-4-yl)pyrimidin-2-amine], the concentration for half-maximal inhibition (IC50) was below 10 nM.
Turning to `C[C@@H](Cn1cnnn1)Oc1cc(-c2cnc(Nc3cn(C4CCN(C5CCC(F)(F)CC5)CC4)nc3C(F)(F)F)nc2)ccc1Cl` [Example 555, (S)-5-(3-((1-(1H-tetrazol-1-yl)propan-2-yl)oxy)-4-chlorophenyl)-N-(1-(1-(4,4-difluorocyclohexyl)piperidin-4-yl)-3-(trifluoromethyl)-1H-pyrazol-4-yl)pyrimidin-2-amine], the IC50 is below 10 nM.
`C[C@@H](Cn1cnnn1)Oc1cc(-c2cnc(Nc3cn(C4CCN(C5CCOC(C)(C)C5)CC4)nc3C(F)(F)F)nc2)ccc1Cl` (stereo partly drawn) [Example 557, 5-(3-(((S)-1-(1H-tetrazol-1-yl)propan-2-yl)oxy)-4-chlorophenyl)-N-(1-(1-(2,2-dimethyltetrahydro-2H-pyran-4-yl)piperidin-4-yl)-3-(trifluoromethyl)-1H-pyrazol-4-yl)pyrimidin-2-amine] returned an IC50 below 10 nM.
